{"source": "patent US20240116921A1", "about": "“LACTAM (HETERO)[…] DERIVATIVES AS INHIBITORS OF ERBB2” (EnLiven Therapeutics, Inc., priority 2020, published 2024)", "key": {"BT-474": {"tested_on": "BT-474", "assay": "Cell viability assay (CellTiter Glo), BT-474", "assay_type": "cell-based", "settings": "Homo sapiens, read-out: IC50, cell viability, BT-474"}, "A431": {"tested_on": "A431", "assay": "Cell viability assay (CellTiter Glo), A431", "assay_type": "cell-based", "settings": "Homo sapiens, A-431, A431 cells, 72 hours"}, "Ba/F3 ERBB2 wt": {"target": "Ba/F3 ERBB2 wt (Homo sapiens, UniProt P04626)", "assay": "Cell viability assay, Ba/F3 ERBB2 wt", "assay_type": "cell-based, mouse", "settings": "Ba/F3 ERBB2 wt cells, 72 hours, CellTiter Glo; read-out: IC50, cell viability, Ba/F3 ERBB2 wt", "method": "(§1) Cells were treated with compounds, and cell viability was measured as a metric of kinase inhibition.\n(§2) The Ba/F3 cell line is IL-3-dependent mouse cell line derived from the C3H mouse strain. Ba/F3 cell lines were engineered to express human ERBB2 or EGFR kinases, rendering the cells IL-3 independent. The lines were generated via retroviral transduction utilizing a Moloney murine leukemia virus (MMLV) promoter, and constructs are stably integrated into the cell genome. The sequences of the ERBB2 and EGFR genes used were NCBI Reference Sequences NM_004448.3 and NM_005228.3, respectively.\n(§3) Similarly, Ba/F3 cell lines engineered to express EGFR, ERBB2, or ERBB2 mutants were grown, harvested, counted and seeded at 3000 cells per well in 96-well plates. A subset of wells contained media only (low control, “LC”).\n(§4) Table B1 provides the growth media and number of cells seeded per well for the each cell line.\n(§5) Plates were placed in a 37° C., 5% CO2 incubator for 72 hours. Plates were then removed from the incubator and equilibrated for 15 minutes at room temperature. 40 μl of CellTiter Glo reagent (Promega) was added to measure the relative level of metabolically active cells by quantifying intracellular ATP concentrations. Plates were incubated for 30 minutes at room temperature, and luminescence was measured. Percent viability was normalized to a vehicle control only using the following formula: % viability=100×(Lumsample−LumLC)/(LumHC−Lum^LC). Graphical curves were fitted using a nonlinear regression model with a sigmoidal dose response."}, "[1]": {"target": "Ba/F3 ERBB2 A775_G776insYVMA (Homo sapiens, UniProt P04626, DUP772-775, cells depend on it)", "sequence (P04626 with tags, fused parts or gaps DUP772-775)": "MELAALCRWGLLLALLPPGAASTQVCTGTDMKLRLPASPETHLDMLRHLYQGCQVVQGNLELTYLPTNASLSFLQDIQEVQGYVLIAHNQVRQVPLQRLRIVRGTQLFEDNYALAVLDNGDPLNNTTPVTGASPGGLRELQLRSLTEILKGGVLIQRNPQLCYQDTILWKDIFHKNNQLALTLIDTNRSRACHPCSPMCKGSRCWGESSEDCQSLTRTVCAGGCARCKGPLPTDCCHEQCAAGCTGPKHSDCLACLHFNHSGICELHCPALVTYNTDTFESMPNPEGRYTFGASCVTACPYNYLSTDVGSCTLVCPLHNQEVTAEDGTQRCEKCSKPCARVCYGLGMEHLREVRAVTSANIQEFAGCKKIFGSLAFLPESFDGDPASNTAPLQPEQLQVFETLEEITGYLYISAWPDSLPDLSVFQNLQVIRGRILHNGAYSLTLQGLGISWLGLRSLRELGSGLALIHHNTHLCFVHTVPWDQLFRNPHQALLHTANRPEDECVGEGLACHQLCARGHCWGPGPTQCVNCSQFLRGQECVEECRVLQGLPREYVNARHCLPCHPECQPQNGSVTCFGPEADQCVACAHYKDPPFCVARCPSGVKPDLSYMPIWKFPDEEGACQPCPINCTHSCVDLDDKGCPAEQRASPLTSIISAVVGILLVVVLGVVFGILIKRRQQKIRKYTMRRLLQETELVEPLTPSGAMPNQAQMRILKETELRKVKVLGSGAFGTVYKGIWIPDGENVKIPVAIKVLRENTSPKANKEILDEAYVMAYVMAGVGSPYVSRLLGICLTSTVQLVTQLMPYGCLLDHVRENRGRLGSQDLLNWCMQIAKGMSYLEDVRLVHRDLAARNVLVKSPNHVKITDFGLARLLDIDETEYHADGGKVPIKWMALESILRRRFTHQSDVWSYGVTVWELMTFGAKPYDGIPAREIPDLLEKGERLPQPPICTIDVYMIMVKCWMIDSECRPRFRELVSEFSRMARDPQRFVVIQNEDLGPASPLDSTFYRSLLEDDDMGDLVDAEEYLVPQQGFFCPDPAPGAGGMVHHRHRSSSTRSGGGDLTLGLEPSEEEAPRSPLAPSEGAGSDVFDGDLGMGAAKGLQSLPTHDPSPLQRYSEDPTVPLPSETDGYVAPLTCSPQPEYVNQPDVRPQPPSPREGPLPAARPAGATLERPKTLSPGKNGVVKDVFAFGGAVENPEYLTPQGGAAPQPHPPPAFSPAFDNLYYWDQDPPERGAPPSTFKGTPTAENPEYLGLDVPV", "assay": "Cell viability assay, Ba/F3 ERBB2 A775_G776insYVMA", "assay_type": "cell-based, mouse", "settings": "Ba/F3 ERBB2 A775_G776insYVMA cells, 72 hours, CellTiter Glo; Tables B2-B4; read-out: IC50, cell viability, Ba/F3 ERBB2 A775_G776insYVMA", "outline": "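IL-3-independent Ba/F3 lines stably expressing the human ERBB2 insertion mutants were seeded at 3000 cells/well and exposed to compounds for 72 h at 37 °C, 5% CO2. Viability was read as ATP by CellTiter-Glo luminescence. Curves were fitted by sigmoidal nonlinear regression.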"}, "Ba/F3 ERBB2-G776VC": {"target": "Ba/F3 ERBB2-G776VC (Homo sapiens, UniProt P04626, DELINS776-776VC, cells depend on it)", "sequence (P04626 with tags, fused parts or gaps DELINS776-776VC)": "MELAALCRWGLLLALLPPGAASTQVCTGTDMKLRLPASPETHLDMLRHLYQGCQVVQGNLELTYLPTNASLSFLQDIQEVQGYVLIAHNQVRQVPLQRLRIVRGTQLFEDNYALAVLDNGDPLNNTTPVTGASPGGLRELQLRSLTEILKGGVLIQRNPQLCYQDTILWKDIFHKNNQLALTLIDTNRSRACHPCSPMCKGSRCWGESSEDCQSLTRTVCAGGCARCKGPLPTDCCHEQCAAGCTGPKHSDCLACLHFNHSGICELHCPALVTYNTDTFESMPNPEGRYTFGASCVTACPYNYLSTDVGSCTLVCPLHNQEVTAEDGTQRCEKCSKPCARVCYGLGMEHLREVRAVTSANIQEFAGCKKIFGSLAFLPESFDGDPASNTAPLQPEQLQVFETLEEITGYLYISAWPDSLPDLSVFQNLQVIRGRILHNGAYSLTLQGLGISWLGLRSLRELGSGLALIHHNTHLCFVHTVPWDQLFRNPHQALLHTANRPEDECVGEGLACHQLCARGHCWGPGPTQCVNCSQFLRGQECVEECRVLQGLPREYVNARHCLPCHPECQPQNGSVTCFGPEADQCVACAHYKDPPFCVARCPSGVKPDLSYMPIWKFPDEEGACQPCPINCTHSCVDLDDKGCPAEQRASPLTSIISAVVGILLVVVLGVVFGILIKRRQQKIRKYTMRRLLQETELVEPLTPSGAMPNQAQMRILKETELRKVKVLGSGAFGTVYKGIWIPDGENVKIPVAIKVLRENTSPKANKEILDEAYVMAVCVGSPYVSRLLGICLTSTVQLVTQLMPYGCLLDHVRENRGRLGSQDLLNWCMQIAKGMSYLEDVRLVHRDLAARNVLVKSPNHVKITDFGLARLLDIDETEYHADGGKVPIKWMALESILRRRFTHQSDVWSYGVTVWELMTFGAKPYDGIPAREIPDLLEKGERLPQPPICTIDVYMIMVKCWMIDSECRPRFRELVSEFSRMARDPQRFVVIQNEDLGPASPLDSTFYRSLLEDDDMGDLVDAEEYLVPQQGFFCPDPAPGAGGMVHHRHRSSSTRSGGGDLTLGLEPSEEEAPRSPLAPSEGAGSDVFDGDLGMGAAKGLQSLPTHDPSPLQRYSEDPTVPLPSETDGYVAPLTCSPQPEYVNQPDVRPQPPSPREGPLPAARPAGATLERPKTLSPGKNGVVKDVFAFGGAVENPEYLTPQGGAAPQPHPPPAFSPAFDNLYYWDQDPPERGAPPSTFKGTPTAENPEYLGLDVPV", "assay": "Cell viability assay, Ba/F3 ERBB2-G776VC", "assay_type": "cell-based, mouse", "settings": "72 hours, CellTiter Glo, read-out: IC50, cell viability, Ba/F3 ERBB2-G776VC", "method": "as §1, §2, §3, §4, §5"}, "[2]": {"target": "Ba/F3 ERBB2-P780_Y781insGSP (Homo sapiens, UniProt P04626, DUP778-780, cells depend on it)", "assay": "Cell viability assay, Ba/F3 ERBB2-P780_Y781insGSP", "assay_type": "cell-based, mouse", "settings": "72 hours, CellTiter Glo, read-out: IC50, cell viability, Ba/F3 ERBB2-P780_Y781insGSP", "method": "as §1, §2, §3, §4\nas §5, with “Percent viability was normalized to a vehicle control only using the following formula: % viability=100×(Lumsample−LumLC)/(LumHC−Lum^LC).” left out"}, "[3]": {"target": "Ba/F3 ERBB2-V777_G778insGC (Homo sapiens, UniProt P04626, INS778CG, cells depend on it)", "sequence (P04626 with tags, fused parts or gaps INS778CG)": "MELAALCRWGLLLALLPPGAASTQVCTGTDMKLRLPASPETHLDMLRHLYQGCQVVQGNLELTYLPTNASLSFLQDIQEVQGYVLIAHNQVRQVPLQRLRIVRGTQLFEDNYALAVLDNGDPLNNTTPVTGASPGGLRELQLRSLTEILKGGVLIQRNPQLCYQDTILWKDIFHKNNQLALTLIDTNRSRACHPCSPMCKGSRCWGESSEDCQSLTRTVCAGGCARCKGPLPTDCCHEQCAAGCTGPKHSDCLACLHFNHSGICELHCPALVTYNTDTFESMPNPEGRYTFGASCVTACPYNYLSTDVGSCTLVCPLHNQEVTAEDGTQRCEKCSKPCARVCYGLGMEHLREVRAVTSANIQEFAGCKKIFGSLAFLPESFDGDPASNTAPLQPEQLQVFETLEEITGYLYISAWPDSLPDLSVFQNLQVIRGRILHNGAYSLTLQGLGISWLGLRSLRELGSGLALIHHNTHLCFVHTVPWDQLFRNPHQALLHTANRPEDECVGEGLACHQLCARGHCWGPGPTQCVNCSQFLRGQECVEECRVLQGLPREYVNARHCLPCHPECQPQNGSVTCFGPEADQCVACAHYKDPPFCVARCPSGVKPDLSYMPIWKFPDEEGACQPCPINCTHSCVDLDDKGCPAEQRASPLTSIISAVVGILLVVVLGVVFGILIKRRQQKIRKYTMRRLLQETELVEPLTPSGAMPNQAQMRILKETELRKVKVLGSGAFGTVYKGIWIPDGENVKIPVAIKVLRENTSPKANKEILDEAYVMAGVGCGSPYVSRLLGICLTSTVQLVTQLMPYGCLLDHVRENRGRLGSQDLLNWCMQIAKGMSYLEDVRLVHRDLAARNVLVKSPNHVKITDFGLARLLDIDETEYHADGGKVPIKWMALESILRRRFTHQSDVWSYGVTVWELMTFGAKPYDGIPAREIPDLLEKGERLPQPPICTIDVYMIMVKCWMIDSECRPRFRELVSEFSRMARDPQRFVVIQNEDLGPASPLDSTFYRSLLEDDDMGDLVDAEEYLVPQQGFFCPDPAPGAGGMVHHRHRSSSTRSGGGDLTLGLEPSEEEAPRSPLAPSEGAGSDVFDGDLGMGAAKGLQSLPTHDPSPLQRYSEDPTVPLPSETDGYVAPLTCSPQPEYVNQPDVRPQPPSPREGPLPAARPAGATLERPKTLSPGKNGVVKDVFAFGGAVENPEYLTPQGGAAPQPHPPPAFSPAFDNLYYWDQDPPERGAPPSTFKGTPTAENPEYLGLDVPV", "assay": "Cell viability assay, Ba/F3 ERBB2-V777_G778insGC", "assay_type": "cell-based, mouse", "settings": "72 hours, CellTiter Glo, read-out: IC50, cell viability, Ba/F3 ERBB2-V777_G778insGC", "method": "as §1, §2, §3, §4, §5"}, "Ba/F3 ERBB2-V777L": {"target": "Ba/F3 ERBB2-V777L (Homo sapiens, UniProt P04626, V777L, cells depend on it)", "assay": "Cell viability assay, Ba/F3 ERBB2-V777L", "assay_type": "cell-based, mouse", "settings": "72 hours, CellTiter Glo, read-out: IC50, cell viability, Ba/F3 ERBB2-V777L", "method": "as §1, §2, §3, §4, §5"}, "Ba/F3 ERBB2-T798M": {"target": "Ba/F3 ERBB2-T798M (Homo sapiens, UniProt P04626, T798M, cells depend on it)", "assay": "Cell viability assay, Ba/F3 ERBB2-T798M", "assay_type": "cell-based, mouse", "settings": "72 hours, CellTiter Glo, read-out: IC50, cell viability, Ba/F3 ERBB2-T798M", "method": "as §1, §2, §3, §4, §5"}, "Ba/F3 ERBB2-L755S": {"target": "Ba/F3 ERBB2-L755S (Homo sapiens, UniProt P04626, L755S, cells depend on it)", "sequence (P04626 whole entry L755S)": "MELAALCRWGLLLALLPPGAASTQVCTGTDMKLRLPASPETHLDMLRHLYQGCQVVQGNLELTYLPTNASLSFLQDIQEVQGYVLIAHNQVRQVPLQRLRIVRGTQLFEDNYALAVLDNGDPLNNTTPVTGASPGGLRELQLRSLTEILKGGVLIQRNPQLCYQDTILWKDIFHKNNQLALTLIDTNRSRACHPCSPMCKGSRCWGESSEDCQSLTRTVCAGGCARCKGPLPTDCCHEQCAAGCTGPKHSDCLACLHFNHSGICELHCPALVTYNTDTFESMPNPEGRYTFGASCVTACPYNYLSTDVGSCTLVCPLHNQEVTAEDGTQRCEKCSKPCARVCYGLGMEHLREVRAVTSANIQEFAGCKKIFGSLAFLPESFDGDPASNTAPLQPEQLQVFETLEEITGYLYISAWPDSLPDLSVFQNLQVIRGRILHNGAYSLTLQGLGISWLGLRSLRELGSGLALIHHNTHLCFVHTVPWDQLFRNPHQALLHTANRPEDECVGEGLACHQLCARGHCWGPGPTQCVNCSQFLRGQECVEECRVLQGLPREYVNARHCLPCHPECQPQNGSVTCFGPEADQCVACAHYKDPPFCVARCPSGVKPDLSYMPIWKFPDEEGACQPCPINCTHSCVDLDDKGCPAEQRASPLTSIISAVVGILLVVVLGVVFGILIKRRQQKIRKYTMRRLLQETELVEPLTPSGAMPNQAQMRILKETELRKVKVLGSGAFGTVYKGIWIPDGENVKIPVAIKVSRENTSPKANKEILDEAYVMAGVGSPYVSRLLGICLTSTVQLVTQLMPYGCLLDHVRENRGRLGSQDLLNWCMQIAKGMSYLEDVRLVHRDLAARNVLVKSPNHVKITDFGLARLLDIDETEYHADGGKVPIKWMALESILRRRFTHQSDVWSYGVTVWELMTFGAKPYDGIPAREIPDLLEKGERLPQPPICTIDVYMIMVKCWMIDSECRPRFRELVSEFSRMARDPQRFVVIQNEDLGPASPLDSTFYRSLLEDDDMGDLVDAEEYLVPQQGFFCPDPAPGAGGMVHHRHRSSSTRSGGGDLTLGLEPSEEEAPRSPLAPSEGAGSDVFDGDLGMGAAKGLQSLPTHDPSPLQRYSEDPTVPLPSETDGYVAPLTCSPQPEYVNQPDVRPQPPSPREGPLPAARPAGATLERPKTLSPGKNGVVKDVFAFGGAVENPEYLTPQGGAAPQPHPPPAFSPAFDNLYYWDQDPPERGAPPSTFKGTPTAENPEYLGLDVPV", "assay": "Cell viability assay, Ba/F3 ERBB2-L755S", "assay_type": "cell-based, mouse", "settings": "72 hours, CellTiter Glo, read-out: IC50, cell viability, Ba/F3 ERBB2-L755S", "method": "as §1, §2, §3, §4, §5"}, "Ba/F3 ERBB2-L869R": {"target": "Ba/F3 ERBB2-L869R (Homo sapiens, UniProt P04626, L869R, cells depend on it)", "assay": "Cell viability assay, Ba/F3 ERBB2-L869R", "assay_type": "cell-based, mouse", "settings": "72 hours, CellTiter Glo, read-out: IC50, cell viability, Ba/F3 ERBB2-L869R", "method": "as §1, §2, §3, §4, §5"}, "[4]": {"target": "T1, phosphorylated ERBB2 (pERBB2) (Homo sapiens, UniProt P04626)", "T1 construct": "endogenous in cells; host or cells: BT-474", "assay": "Detection of phosphorylated ERBB2 (pERBB2) by ELISA in BT-474 cells", "assay_type": "cell-based", "settings": "four hours incubation", "outline": "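BT-474 cells (2.0×10^4/well) treated 4 h at 37 °C, 5% CO2 with compounds in four-fold dilutions from 10 µM to 0.01 nM. Lysate pERBB2 measured by ELISA with TMB read at 450 nm; % relative activity scaled between no-cell wells and 0.1% DMSO-treated cells.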"}, "MDA-MB-175VII": {"tested_on": "MDA-MB-175VII", "assay": "Cell viability assay (CellTiter Glo), MDA-MB-175VII", "assay_type": "cell-based", "settings": "Homo sapiens, read-out: IC50, cell viability, MDA MB 175VII", "method": "as §1, §2, §3, §4, §5"}, "Ba/F3 EGFR wt": {"target": "Ba/F3 EGFR wt (Homo sapiens, UniProt P00533)", "assay": "Cell viability assay, Ba/F3 EGFR wt", "assay_type": "cell-based, mouse", "settings": "Ba/F3 EGFR wt cells, 72 hours, CellTiter Glo; read-out: IC50, cell viability, Ba/F3 EGFR wt", "method": "as §1, §2, §3, §4\nPlates were placed in a 37° C., 5% CO2 incubator for 72 hours. Plates were then removed from the incubator and equilibrated for 15 minutes at room temperature. 40 μl of CellTiter Glo reagent (Promega) was added to measure the relative level of metabolically active cells by quantifying intracellular ATP concentrations. Plates were incubated for 30 minutes at room temperature, and luminescence was measured. […]"}, "[5]": {"settings": "BT-474 cells, 72 hours, CellTiter Glo"}}, "note": "Where two headings read alike, the source gives them in different places.", "data": [{"smiles": "C=C1CCN(c2ccc3ncnc(Nc4ccc(Oc5ccc(C)nc5)c(C)c4)c3c2)C1=O", "note": "[Compound 3, 1-[4-([3-methyl-4-[(6-methylpyridin-3-yl)oxy]phenyl]amino)quinazolin-6-yl]-3-methylidenepyrrolidin-2-one]", "values": [{"measurement": "IC50", "setting": "BT-474; [5]", "result": 19.7, "unit": "nM"}, {"measurement": "IC50", "setting": "A431", "result": 1140, "unit": "nM"}, {"measurement": "GI50", "setting": "Ba/F3 ERBB2 wt", "result": 11, "unit": "nM"}, {"measurement": "GI50", "setting": "[1]", "result": 202, "unit": "nM"}, {"measurement": "GI50", "setting": "Ba/F3 ERBB2-G776VC", "result": 40, "unit": "nM"}, {"measurement": "GI50", "setting": "[2]", "result": 13, "unit": "nM"}, {"measurement": "GI50", "setting": "[3]", "result": 3.8, "unit": "nM"}, {"measurement": "GI50", "setting": "Ba/F3 ERBB2-V777L", "result": 4.7, "unit": "nM"}, {"measurement": "GI50", "setting": "Ba/F3 ERBB2-T798M", "result": 656, "unit": "nM"}, {"measurement": "GI50", "setting": "Ba/F3 ERBB2-L755S", "result": 172, "unit": "nM"}, {"measurement": "GI50", "setting": "Ba/F3 ERBB2-L869R", "result": 47, "unit": "nM"}]}, {"smiles": "C=C1CCN(c2ccc3ncnc(Nc4ccc(Oc5ccn6ncnc6c5)c(C)c4)c3c2F)C1=O", "note": "[Compound 7, 1-[5-fluoro-4-[(3-methyl-4-[[1,2,4]triazolo[1,5-a]pyridin-7-yloxy]phenyl)amino]quinazolin-6-yl]-3-methylidenepyrrolidin-2-one]", "values": [{"measurement": "IC50", "setting": "BT-474; [5]", "result": 31.7, "unit": "nM"}, {"measurement": "IC50", "setting": "A431", "result": "> 10000", "unit": "nM"}, {"measurement": "GI50", "setting": "[1]", "result": "> 1000", "unit": "nM"}, {"measurement": "IC50", "setting": "[4]", "result": 109, "unit": "nM"}]}, {"smiles": "C=C1CCN(c2ccc3ncnc(Nc4ccc(Oc5ccn(C(F)F)c(=O)c5)c(C)c4)c3c2)C1=O", "note": "[Compound 12, 1-(difluoromethyl)-4-(2-methyl-4-[[6-(3-methylidene-2-oxopyrrolidin-1-yl)quinazolin-4-yl]amino]phenoxy)pyridin-2-one]", "values": [{"measurement": "IC50", "setting": "BT-474; [5]", "result": 20.4, "unit": "nM"}, {"measurement": "IC50", "setting": "A431", "result": 7650, "unit": "nM"}, {"measurement": "GI50", "setting": "[1]", "result": 113, "unit": "nM"}]}, {"smiles": "CCOc1cc2ncc(C#N)c(Nc3ccc(OCc4ccccn4)c(Cl)c3)c2cc1NC(=O)/C=C/CN(C)C", "note": "[Neratinib, neratinib, reference compound]", "values": [{"measurement": "IC50", "setting": "BT-474; BT-474, 72 h", "result": 2.2, "unit": "nM"}, {"measurement": "IC50", "setting": "MDA-MB-175VII; MDA-MB-175-VII, 72 h", "result": 7.1, "unit": "nM"}]}, {"smiles": "Cc1cc(Nc2ncnc3ccc(NC4=NC(C)(C)CO4)cc23)ccc1Oc1ccn2ncnc2c1", "note": "[Tucatinib, tucatinib, reference compound]", "values": [{"measurement": "IC50", "setting": "MDA-MB-175VII; MDA MB 175VII cells, 72 hours, CellTiter Glo", "result": 89, "unit": "nM"}, {"measurement": "IC50", "setting": "A431", "result": "> 10000", "unit": "nM"}, {"measurement": "GI50", "setting": "Ba/F3 EGFR wt", "result": "> 10000", "unit": "nM"}]}]}
